Patent EP4273147A1, “SUBSTITUTED SPIROLACTAMS, SALTS THEREOF AND THEIR USE AS HERBICIDALLY ACTIVE SUBSTANCES” (Bayer Aktiengesellschaft, priority 2022, dated 2023)

Legend:
ALOMY [1] = assay: Herbicidal pre-emergence action, section C (Table C2); type: in vivo, Alopecurus myosuroides; conditions: application rate 320 g/ha; visual grading after ca. 3 weeks
AMARE = assay: Herbicidal pre-emergence action, section C (Table C3); type: in vivo, Amaranthus retroflexus; conditions: application rate 320 g/ha; visual grading after ca. 3 weeks
Description: (§4) Seeds of mono- and dicotyledonous weed plants and crop plants were sown, in plastic or organic planting pots, in sandy loam and covered with soil. The compounds according to the invention, formulated in the form of wettable powders (WP) or as emulsifiable concentrates (EC), were applied to the surface of the covering soil as aqueous suspension or emulsion, with the addition of 0.5% of an additive, at an application rate of 600 1 of water/ha (converted). Following treatment, the pots were placed in a greenhouse and kept under optimum growth conditions for the test plants.

DIGSA = assay: Herbicidal pre-emergence action, section C (Table C5); type: in vivo, Digitaria sanguinalis; conditions: application rate 80 g/ha; visual grading after ca. 3 weeks
ECHCG [2] = assay: Herbicidal pre-emergence action, section C (Table C6); type: in vivo, Echinochloa crus-galli; conditions: visual grading after ca. 3 weeks
LOLRI [3] = assay: Herbicidal pre-emergence action, section C (Table C7); type: in vivo, Lolium rigidum; conditions: application rate 320 g/ha; visual grading after ca. 3 weeks
Description: as §4

MATIN [4] = assay: Herbicidal pre-emergence action, section C (Table C8); type: in vivo, Matricaria inodora; conditions: application rate 320 g/ha; visual grading after ca. 3 weeks
POLCO = assay: Herbicidal pre-emergence action, section C (Table C9); type: in vivo, Polygonum convolvulus; conditions: visual grading after ca. 3 weeks
SETVI [5] = assay: Herbicidal pre-emergence action, section C (Table C10); type: in vivo, Setaria viridis; conditions: application rate 80 g/ha; visual grading after ca. 3 weeks
VERPE [6] = assay: Herbicidal pre-emergence action, section C (Table C11); type: in vivo, Veronica persica; conditions: application rate 320 g/ha; visual grading after ca. 3 weeks
VIOTR [7] = assay: Herbicidal pre-emergence action, section C (Table C12); type: in vivo, Viola tricolor; conditions: visual grading after ca. 3 weeks
ABUTH [8] = assay: Herbicidal post-emergence action, section E (Table E1); type: in vivo, Abutilon theophrasti; conditions: application rate 320 g/ha; assessed visually after ca. 3 weeks
Text: (§1) 2 to 3 weeks after sowing, the test plants were sprayed in the single-leaf stage.

ALOMY [9] = assay: Herbicidal post-emergence action, section E (Table E2); type: in vivo, Alopecurus myosuroides; conditions: assessed visually after ca. 3 weeks
Text: as §1

ECHCG [10] = assay: Herbicidal post-emergence action, section E (Table E5); type: in vivo, Echinochloa crus-galli; conditions: application rate 320 g/ha; assessed visually after ca. 3 weeks
Text: as §1

VERPE [11] = assay: Herbicidal post-emergence action, section E (Table E9); type: in vivo, Veronica persica; conditions: application rate 320 g/ha; assessed visually after ca. 3 weeks
Text: as §1

VIOTR [12] = assay: Herbicidal post-emergence action, section E (Table E10); type: in vivo, Viola tricolor; conditions: application rate 320 g/ha; assessed visually after ca. 3 weeks
Text: as §1

ZEAMX = assay: Post-emergence effects on crop plants (Table F1); type: in vivo, Zea mays; conditions: application rate 320 g/ha, crop plant ZEAMX
Text: as §1

TRZAS = assay: Post-emergence effects on crop plants (Table F2); type: in vivo, Triticum aestivum; conditions: application rate 320 g/ha, crop plant TRZAS
Text: as §1

ORYZA = assay: Post-emergence effects on crop plants (Table F3); type: in vivo, Oryza sativa; conditions: application rate 80 g/ha, crop plant ORYZA
Text: as §1

GLXMA = assay: Post-emergence effects on crop plants (Table F4); type: in vivo, Glycine max; conditions: application rate 80 g/ha, crop plant GLXMA
Text: as §1

BRSNW = assay: Post-emergence effects on crop plants (Table F5); type: in vivo, Brassica napus; conditions: crop plant BRSNW
Text: as §1

ABUTH [13] = assay: Herbicidal pre-emergence action (Table A1); type: in vivo, Abutilon theophrasti; conditions: application rate 1280 g/ha; visual grading after ca. 3 weeks vs untreated controls (100% = plants have died off, 0% = as control plants)
Method in brief: (§2)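 In each pot of sandy loam, seed of a single monocot weed species was sown alongside seed of a single dicot weed species, and the seed was covered with soil.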

ECHCG [14] = assay: Herbicidal pre-emergence action (Table A2); type: in vivo, Echinochloa crus-galli; conditions: application rate 320 g/ha; visual grading after ca. 3 weeks
Method in brief: as §2

LOLRI [15] = assay: Herbicidal pre-emergence action (Table A3); type: in vivo, Lolium rigidum; conditions: Lolium rigidum, pre-emergence, 504 h, application rate 320 g/ha; visual grading after ca. 3 weeks; read-out: pre-emergence activity against LOLRI
Method in brief: as §2

MATIN [16] = assay: Herbicidal pre-emergence action (Table A4); type: in vivo, Matricaria inodora; conditions: application rate 320 g/ha; visual grading after ca. 3 weeks
Method in brief: as §2

SETVI [17] = assay: Herbicidal pre-emergence action (Table A5); type: in vivo, Setaria viridis; conditions: application rate 1280 g/ha; visual grading after ca. 3 weeks
Method in brief: as §2

POAAN [18] = assay: Herbicidal pre-emergence action (Table A7); type: in vivo, Poa annua; conditions: Poa annua, pre-emergence, 504 h; application rate 1280 g/ha; visual grading after ca. 3 weeks; read-out: pre-emergence activity against POAAN
Method in brief: as §2

ALOMY [19] = assay: Herbicidal pre-emergence action (Table A9); type: in vivo, Alopecurus myosuroides; conditions: application rate 1280 g/ha; visual grading after ca. 3 weeks
Method in brief: as §2

KCHSC = assay: Herbicidal pre-emergence action (Table A10); type: in vivo, Kochia scoparia; conditions: application rate 1280 g/ha; visual grading after ca. 3 weeks
Method in brief: as §2

VERPE [20] = assay: Herbicidal pre-emergence action (Table A11); type: in vivo, Veronica persica; conditions: application rate 1280 g/ha; visual grading after ca. 3 weeks
Method in brief: as §2

ALOMY [21] = assay: Herbicidal post-emergence action (Table B2); type: in vivo, Alopecurus myosuroides; conditions: application rate 1280 g/ha; rated visually after about 3 weeks
Description: Seeds of mono- and dicotyledonous weed plants were placed in plastic pots in sandy loam soil (doubly sown with in each case one species of mono- or dicotyledonous weed plants per pot), covered with soil and cultivated in a greenhouse under controlled growth conditions. 2 to 3 weeks after sowing, the test plants were treated at the one-leaf stage. […] After the test plants had been kept in the greenhouse under optimum growth conditions for about 3 weeks, the activity of the preparations was rated visually in comparison to untreated controls. For example, 100% activity = the plants have died, 0% activity = like control plants.

ECHCG [22] = assay: Herbicidal post-emergence action (Table B3); type: in vivo, Echinochloa crus-galli; conditions: Echinochloa crus-galli, post-emergence, 504 h; application rate 1280 g/ha; rated visually after about 3 weeks; read-out: post-emergence activity against ECHCG
Method in brief: (§3)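 Plants grown from seed in a greenhouse are treated at the one-leaf stage, two to three weeks after sowing. They then stay under optimum growth conditions for about three weeks before herbicidal activity is scored visually on a 0–100% scale against untreated controls.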

POAAN [23] = assay: Herbicidal post-emergence action (Table B7); type: in vivo, Poa annua; conditions: application rate 1280 g/ha
Method in brief: as §3

SETVI [24] = assay: Herbicidal post-emergence action (Table B8); type: in vivo, Setaria viridis; conditions: application rate 1280 g/ha
Method in brief: as §3

VERPE [25] = assay: Herbicidal post-emergence action (Table B10); type: in vivo, Veronica persica; conditions: application rate 1280 g/ha
Method in brief: as §3

ABUTH [26] = assay: Herbicidal pre-emergence action, section C (Table C1); type: in vivo, Abutilon theophrasti; conditions: application rate 320 g/ha; visual grading after ca. 3 weeks
SETVI [27] = assay: Herbicidal post-emergence action, section E (Table E8); type: in vivo, Setaria viridis; conditions: application rate 320 g/ha; assessed visually after ca. 3 weeks
Text: as §1

O=C1N(Cc2c(F)cccc2F)CCCC12CCCN(Cc1c(F)cccc1F)C2=O (racemic) [I-006, 2,8-bis[(2,6-difluorophenyl)methyl]-2,8-diazaspiro[5.5]undecane-1,7-dione]
pre-emergence activity against ALOMY (ALOMY [1]): 100%
pre-emergence activity against AMARE (AMARE): 90%
pre-emergence activity against DIGSA (DIGSA): 100%
pre-emergence activity against ECHCG (ECHCG [2]; application rate 320 g/ha): 100%
pre-emergence activity against LOLRI (LOLRI [3]): 100%
pre-emergence activity against MATIN (MATIN [4]): 80%
pre-emergence activity against POLCO (POLCO; application rate 80 g/ha): 100%
pre-emergence activity against SETVI (SETVI [5]): 100%
pre-emergence activity against VERPE (VERPE [6]): 90%
pre-emergence activity against VIOTR (VIOTR [7]; application rate 38 g/ha (so in the source)): 90%
post-emergence activity against ABUTH (ABUTH [8]): 80%
post-emergence activity against ALOMY (ALOMY [9]; application rate 320 g/ha): 90%
post-emergence activity against ECHCG (ECHCG [10]): 80%
post-emergence activity against VERPE (VERPE [11]): 80%
post-emergence activity against VIOTR (VIOTR [12]): 80%
post-emergence activity against ZEAMX (ZEAMX): 20%
post-emergence activity against TRZAS (TRZAS): 10%
post-emergence activity against ORYZA (ORYZA): 10%
post-emergence activity against GLXMA (GLXMA): 20%
post-emergence activity against BRSNW (BRSNW; application rate 80 g/ha): 20%

O=C1N(Cc2ccccc2)CCCC12CCCN(Cc1ccccc1F)C2=O (racemic) [I-010, 2-benzyl-8-(2-fluorobenzyl)-2,8-diazaspiro[5.5]undecane-1,7-dione]
pre-emergence activity against ABUTH (ABUTH [13]): 90%
pre-emergence activity against ECHCG (ECHCG [14]): 100%
pest or weed control at 320 g/ha (LOLRI [15]): 100%
pre-emergence activity against MATIN (MATIN [16]): 90%
pre-emergence activity against SETVI (SETVI [17]): 90%
pest or weed control at 1280 g/ha (POAAN [18]): 100%
pre-emergence activity against ALOMY (ALOMY [19]): 90%
pre-emergence activity against KCHSC (KCHSC): 90%
pre-emergence activity against VERPE (VERPE [20]): 90%
post-emergence activity against ALOMY (ALOMY [21]): 90%
pest or weed control at 1280 g/ha (ECHCG [22]): 90%
post-emergence activity against POAAN (POAAN [23]): 90%
post-emergence activity against SETVI (SETVI [24]): 90%
post-emergence activity against VERPE (VERPE [25]): 90%
pre-emergence activity against ABUTH (ABUTH [26]): 90%
pre-emergence activity against ALOMY (ALOMY [1]): 100%
pre-emergence activity against ECHCG (ECHCG [2]; application rate 80 g/ha): 100%
pre-emergence activity against LOLRI (LOLRI [3]): 100%
pre-emergence activity against MATIN (MATIN [4]): 90%
pre-emergence activity against POLCO (POLCO; application rate 320 g/ha): 80%
pre-emergence activity against SETVI (SETVI [5]): 100%
pre-emergence activity against VERPE (VERPE [6]): 80%
pre-emergence activity against VIOTR (VIOTR [7]; application rate 80 g/ha): 80%
post-emergence activity against ABUTH (ABUTH [8]): 80%
post-emergence activity against ALOMY (ALOMY [9]; application rate 80 g/ha): 80%
post-emergence activity against ECHCG (ECHCG [10]): 90%
post-emergence activity against SETVI (SETVI [27]): 80%
post-emergence activity against TRZAS (TRZAS): 0%
post-emergence activity against ORYZA (ORYZA): 0%
post-emergence activity against BRSNW (BRSNW; application rate 320 g/ha): 0%
